SMILES strings stand for the structures. Where only a bound is given, the exact number is not on record here.

Chain of HPK1 (Q92918 whole entry): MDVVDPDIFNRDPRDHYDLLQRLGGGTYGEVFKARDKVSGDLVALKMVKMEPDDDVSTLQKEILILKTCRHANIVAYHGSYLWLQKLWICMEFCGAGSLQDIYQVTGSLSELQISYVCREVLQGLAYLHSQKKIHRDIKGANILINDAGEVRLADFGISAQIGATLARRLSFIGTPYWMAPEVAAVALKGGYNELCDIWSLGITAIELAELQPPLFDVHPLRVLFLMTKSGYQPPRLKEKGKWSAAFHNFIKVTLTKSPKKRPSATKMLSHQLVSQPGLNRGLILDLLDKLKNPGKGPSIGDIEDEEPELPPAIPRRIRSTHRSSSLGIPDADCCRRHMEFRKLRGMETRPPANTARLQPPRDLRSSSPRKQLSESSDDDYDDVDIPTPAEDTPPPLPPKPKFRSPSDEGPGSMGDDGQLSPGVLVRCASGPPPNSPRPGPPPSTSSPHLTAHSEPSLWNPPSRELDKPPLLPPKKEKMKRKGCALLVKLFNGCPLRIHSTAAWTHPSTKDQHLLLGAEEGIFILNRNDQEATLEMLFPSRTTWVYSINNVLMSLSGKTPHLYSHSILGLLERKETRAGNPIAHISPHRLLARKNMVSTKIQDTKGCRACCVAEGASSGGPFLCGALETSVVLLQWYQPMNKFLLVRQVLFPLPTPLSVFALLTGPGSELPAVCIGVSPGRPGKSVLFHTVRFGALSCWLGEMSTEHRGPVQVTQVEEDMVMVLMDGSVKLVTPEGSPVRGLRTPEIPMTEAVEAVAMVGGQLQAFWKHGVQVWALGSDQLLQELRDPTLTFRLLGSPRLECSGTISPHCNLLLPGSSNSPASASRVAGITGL

In this assay the target is HPK1 (Homo sapiens (Human), UniProt Q92918). Description: HPK1 biochemical enzyme assay (microfluidic mobility shift assay). The following applies: 1.5 nM HPK1, ATP 1 mM final, 30 min preincubation, 60 min at RT, Caliper EZ Reader; read-out: HPK1 1000UMATP caliper IC50. The method in brief:
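Mobility shift readout of HPK1 activity after a 60 min RT reaction with 1 mM ATP, 1 μM substrate and 5 mM MgCl2. Enzyme/substrate mix was first exposed to compounds for 30 min, using ten-point curves topping at 3 μM final.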
In the case of `CN1CCN(c2ccc(Nc3ccc(-c4cnn5ccncc45)c4c3C(=O)NC4)nc2)CC1` [I-113, 7-[[5-(4-methylpiperazin-1-yl)-2-pyridyl]amino]-4-pyrazolo[1,5-a]pyrazin-3-yl-isoindolin-1-one], the IC50 was less than 0.1 µM.

On to `Cn1cnc2nccc(-c3ccc(Nc4ccc(N5CCNCC5)cn4)c4c3CNC4=O)c21` [I-114, 4-(1-methylimidazo [4,5-b]pyridin-7-yl)-7-[(5-piperazin-1-yl-2-pyridyl)amino] isoindolin-1-one], for which the IC50 is more than 1 µM.

Turning to `Cn1ccc2c(-c3ccc(Nc4cc(C5CCNCC5)n[nH]4)c4c3CNC4=O)ccnc21` [I-115, 4-(1-methylpyrrolo [2,3-b]pyridin-4-yl)-7-[[3-(4-piperidyl)-1H-pyrazol-5-yl]amino]isoin-dolin-1-one], the half-maximal inhibitory concentration (IC50) was less than 0.1 µM.

For `Cn1ccc2c(-c3ccc(Nc4ccc(N5CCC[C@H](O)C5)cn4)c4c3CNC4=O)ccnc21` [I-116, 7-[[5-[(3S)-3-hydroxy-1-piperidyl]-2-pyridyl]amino]-4-(1-methylpyrrolo [2,3-b]pyridin-4-yl)isoindolin-1-one], the IC50 was less than 0.1 µM.

`O=C1NCc2c(-c3cnn4cccnc34)ccc(Nc3ccc(N4CCNCC4)cn3)c21` [I-117, 7-[(5-piperazin-1-yl-2-pyridyl)amino]-4-pyrazolo[1,5-a]pyrimidin-3-yl-isoindolin-1-one]: the IC50 is less than 0.1 µM.

Take `CN1CCCc2c(-c3ccc(Nc4ccc(N5CCNCC5)cn4)c4c3CNC4=O)ccnc21` [I-118, 4-(8-methyl-6.7-dihydro-5H-1,8-naphthyridin-4-yl)-7-[(5-piperazin-1-yl-2-pyridyl)amino] isoindolin-1-one]: the IC50 lay in the range of 0.1 to 1 µM.

`O=C1NCc2c(-c3ccnc4c3ccn4C(F)F)ccc(Nc3ccc(N4CCNCC4)cn3)c21` [I-119, 4-[l-(difluorometh-yl)pyrrolo[2,3-b]pyridin-4-yl]-7-[(5-piperazin-1-yl-2-pyridyl)amino] isoindolin-1-one]: the IC50 was less than 0.1 µM.

Turning to `N#Cc1ccn2c(-c3ccc(Nc4ccc(N5CCNCC5)cn4)c4c3CNC4=O)cnc2c1` [I-120], the IC50 was less than 0.1 µM.

In the case of `Cn1ccc2c(-c3ccc(Nc4ccc(N5CCC[C@@H](O)C5)cn4)c4c3CNC4=O)ccnc21` [I-121, 7-[[5-[(3R)-3-hydroxy-1-piperidyl]-2-pyridyl]amino]-4-(1-methylpyrrolo [2,3-b]pyridin-4-yl)isoindolin-1-one], the IC50 was less than 0.1 µM.

`Cn1cnc2c(-c3ccc(Nc4ccc(N5CCNCC5)cn4)c4c3CNC4=O)cccc21` [I-122, 4-(1-methylbenzimidazol-4-yl)-7-[(5-piperazin-1-yl-2-pyridyl)amino] isoindolin-1-one]: the IC50 is less than 0.1 µM.

Take `Cn1ccc2c(-c3ccc(Nc4ccc(N5CCNCC5)cn4)c4c3CNC4=O)ncnc21` [I-123, 4-(7-methylpyrrolo [2,3-d]pyrimidin-4-yl)-7-[(5-piperazin-1-yl-2-pyridyl)amino] isoindolin-1-one]: the IC50 is less than 0.1 µM.

With `Cc1ccn2c(-c3ncc(Nc4ccc(N5CCNCC5)cn4)c4c3CNC4=O)cnc2c1` [I-124, 4-(7-methylimidazo [1,2-a]pyridin-3-yl)-7-[(5-piperazin-1-yl-2-pyridyl)amino]-2,3-dihydropyrrolo [3,4-c]pyridin-1-one], the IC50 is less than 0.1 µM.

As to `Cc1ccn2c(-c3ccc(Nc4ccc(N5CCC(O)CC5)cn4)c4c3CNC4=O)cnc2c1` [I-126, 7-[[5-(4-hydroxy-1-piperidyl)-2-pyridyl]amino]-4-(7-methylimidazo [1,2-a]pyridin-3-yl)isoindolin-1-one], the IC50 is less than 0.1 µM.

With `O=C1NCc2c(-c3ccnc4ccnn34)ccc(Nc3ccc(N4CCNCC4)cn3)c21` [I-127, 7-[(5-piperazin-1-yl-2-pyridyl)amino]-4-pyrazolo[1,5-a]pyrimidin-7-yl-isoindolin-1-one], the IC50 is more than 1 µM.

In the case of `CN1CCN(c2ccc(Nc3cnc(-c4c(F)cnc5c4ccn5C)c4c3C(=O)NC4)nc2)CC1` [I-128], the IC50 was less than 0.1 µM.

Consider `Cn1nc(Nc2ccc(-c3ccnc4c3ccn4C)c3c2C(=O)NC3)cc1C1CCOCC1` [I-129, 4-(1-methylpyrrolo [2,3-b]pyridin-4-yl)-7-[(1-methyl-5-tetrahydropy-ran-4-yl-pyrazol-3-yl)amino]isoin-dolin-1-one], for which the IC50 was less than 0.1 µM.

For the compound `O=C1NCc2c(-c3cnc4c(F)cccn34)ccc(Nc3ccc(N4CCC(O)CC4)cn3)c21` [I-130, 4-(8-fluoroimidazo [1,2-a]pyridin-3-yl)-7-[[5-(4-hydroxy-1-piperidyl)-2-pyridyl]amino] isoindolin-1-one], the IC50 was less than 0.1 µM.

Regarding `O=C1NCc2c(-c3cnn4ccccc34)ccc(Nc3ccc(N4CCC(O)CC4)cn3)c21` [I-131, 7-[[5-(4-hydroxy-1-piperidyl)-2-pyridyl]amino]-4-pyrazolo[1,5-a]pyridin-3-yl-isoindolin-1-one], the half-inhibitory concentration (IC50) was less than 0.1 µM.

In the case of `O=C1NCc2c(-c3cnc4ccc(C(F)(F)F)cn34)ccc(Nc3ccc(N4CCC(O)CC4)cn3)c21` [I-132], the IC50 is more than 1 µM.

As to `O=C1NCc2c(-c3cnc4cnccn34)ccc(Nc3ccc(N4CCC(O)CC4)cn3)c21` [I-133, 7-[[5-(4-hydroxy-1-piperidyl)-2-pyridyl]amino]-4-imidazo[1,2-a]pyrazin-3-yl-isoindolin-1-one], the IC50 was less than 0.1 µM.

`Cc1ccc2ncc(-c3ccc(Nc4ccc(N5CCC(O)CC5)cn4)c4c3CNC4=O)n2c1` [I-134, 7-[[5-(4-hydroxy-1-piperidyl)-2-pyridyl]amino]-4-(6-methylimidazo [1,2-a]pyridin-3-yl)isoindolin-1-one]: the concentration for half-maximal inhibition (IC50) is less than 0.1 µM.

For `Cc1cccn2c(-c3ccc(Nc4ccc(N5CCC(O)CC5)cn4)c4c3CNC4=O)cnc12` [I-135, 7-[[5-(4-hydroxy-1-piperidyl)-2-pyridyl]amino]-4-(8-methylimidazo [1,2-a]pyridin-3-yl)isoindolin-1-one], the IC50 is less than 0.1 µM.

In the case of `Cc1cccc2c(-c3ccc(Nc4ccc(N5CCC(O)CC5)cn4)c4c3CNC4=O)cnn12` [I-136, 7-[[5-(4-hydroxy-1-piperidyl)-2-pyripyl]amino]-4-(7-methylpyrazolo[1,5-a]pyridin-3-yl)isoindolin-1-one], the IC50 is less than 0.1 µM.

Turning to `Cc1ccc2c(-c3ccc(Nc4ccc(N5CCC(O)CC5)cn4)c4c3CNC4=O)cnn2c1` [I-137, 7-[[5-(4-hydroxy-1-piperidyl)-2-pyridyl]amino]-4-(6-methylpyrazolo[1,5-a]pyridin-3-yl)isoindolin-1-one], the IC50 was less than 0.1 µM.

For the compound `O=C1NCc2c(-c3cnc4cc(C(F)(F)F)ccn34)ccc(Nc3ccc(N4CCC(O)CC4)cn3)c21` [I-140], the IC50 is less than 0.1 µM.

Consider `CN1CCN(c2ccc(Nc3cnc(-c4c(-c5ccccc5)[nH]c5ccccc45)c4c3C(=O)NC4)nc2)CC1` [I-141, 7-((5-(4-Methylpiperazin-1-yl)pyridin-2-yl)amino)-4-(2-phenyl-1H-indol-3-yl)-2,3-dihydro-1H-pyrrolo[3,4-c]pyridin-1-one], for which the IC50 was less than 0.1 µM.

As for `COc1ccc2ncc(-c3ccc(Nc4ccc(N5CCC(O)CC5)cn4)c4c3CNC4=O)n2c1` [I-142, 7-[[5-(4-hydroxy-1-piperidyl)-2-pyridyl]amino]-4-(6-methoxy-imidazo[1,2-a]pyridin-3-yl)-isoindolin-1-one], the IC50 is less than 0.1 µM.

For `O=C1NCc2c(-c3cnc4n3CCOC4)ccc(Nc3ccc(N4CCC(O)CC4)cn3)c21` [I-143], the 50% inhibitory concentration (IC50) is less than 0.1 µM.

Turning to `Cn1ccc2c(-c3ccc(Nc4ccc(N5CCC(O)CC5)cn4)c4c3CNC4=O)ncnc21` [I-144, 7-[[5-(4-hydroxy-1-piperidyl)-2-pyridyl]amino]-4-(7-methylpyrrolo [2,3-d]pyrimidin-4-yl)isoindolin-1-one], the IC50 was less than 0.1 µM.

As to `CCNC(=O)C(C)(C)c1ccc(Nc2ccc(-c3ccnc4c3ccn4C)c3c2C(=O)NC3)nc1` [I-146, N-ethyl-2-methyl-2-[6-[[7-(1-methylpyrrolo [2,3-b]pyridin-4-yl)-3-oxo-isoindolin-4-yl]amino]-3-pyridyl]propan amide], the IC50 is less than 0.1 µM.

Take `Cn1ccc2c(-c3ccc(Nc4cccc(N5CCC(O)CC5)n4)c4c3CNC4=O)ccnc21` [I-147, 7-[[6-(4-hydroxy-1-piperidyl)-2-pyridyl]amino]-4-(1-methylpyrrolo [2,3-b]pyridin-4-yl)isoindolin-1-one]: the IC50 lay within 0.1 to 1 µM.

Consider `Cc1ccn2c(-c3ccc(Nc4ccc(S(C)(=O)=O)cn4)c4c3CNC4=O)cnc2c1` [I-148, 4-(7-methylimidazo [1,2-a]pyridin-3-yl)-7-[(5-methylsulfony 1-2-pyridyl)amino] isoindolin-1-one], for which the IC50 was less than 0.1 µM.

On to `O=C1NCc2c(-c3cnc4c(C(F)(F)F)cccn34)ccc(Nc3ccc(N4CCC(O)CC4)cn3)c21` [I-149], for which the IC50 was less than 0.1 µM.

Consider `O=C1NCc2c(-c3cnn4c3CCC(C(=O)NC3CC3)C4)ccc(Nc3ccc(N4CCC(O)CC4)cn3)c21` (centres unmarked) [I-150, N-cyclopropyl-3-[7-[[5-(4-hydroxy-1-piperidyl)-2-pyridyl]amino]-1-oxo-isoindolin-4-yl]-4,5,6,7-tetrahydropyra-zolo[1,5-a]pyridine-6-carboxamide], for which the IC50 lay in the range of 0.1 to 1 µM.

Turning to `Cc1ccn2c(-c3ccc(Nc4ccc(N5CCC(O)CC5)cn4)c4c3CNC4=O)cnc2c1F` [I-151], the half-inhibitory concentration (IC50) is less than 0.1 µM.

`Cn1cnc2c(-c3ccc(Nc4ccc(N5CCC(O)CC5)cn4)c4c3CNC4=O)ccnc21` [I-152, 7-[[5-(4-hydroxy-1-piperidyl)-2-pyridyl]amino]-4-(3-methylimidazo [4,5-b]pyridin-7-yl)isoindolin-1-one]: the IC50 was less than 0.1 µM.

For the compound `O=C1NCc2c(-c3cnc4cnccn34)ccc(Nc3ccc(N4CCOCC4)cn3)c21` [I-153, 4-imidazo[1,2-a]pyrazin-3-yl-7-[(5-morpholino-2-pyridyl)amino] isoindolin-1-one], the IC50 was less than 0.1 µM.

As for `Cc1ccn2c(-c3ncc(Nc4ccc(N5CCC(O)CC5)cn4)c4c3CNC4=O)cnc2c1` [I-154, 7-[[5-(4-hydroxy-1-piperidyl)-2-pyridyl]amino]-4-(7-methylimidazo [1,2-a]pyridin-3-yl)-2,3-dihydropyrrolo [3,4-c]pyridin-1-one], the IC50 is less than 0.1 µM.
